Data taken from patent publication US7314877B2, “Benzofuran derivative” (Kowa Co., Ltd., priority 2003, dated 2008).

How the values were obtained:
TNF-α production = TNF-α production inhibitory effect in LPS-stimulated RAW264.7 cells (ELISA); format: cell-based; settings: Mus musculus, 8 h, lipopolysaccharide 1 μg/mL, eight hours incubation, TNF-α in culture supernatant by ELISA
Protocol: Method for Determining TNF-α Production Inhibitory Effect
RAW264.7 cells were suspended in a DMEM medium supplemented with 10% fetal bovine serum (FBS), and the suspension was seeded in wells of a 24-well plate (5×10^5/mL/well). Each test compound (0 to 10 μM) was added to the wells, and the mixture was incubated in a CO2 incubator for 30 minutes. Subsequently, lipopolysaccharide was added to the mixture in an amount of 1 μg/mL, and incubation was further performed in a CO2 incubator for eight hours. Eight hours after the start of incubation, the culture supernatant was collected, and the amount of TNF-α contained in the culture broth was determined through ELISA. IC50 value was determined through comparison with the amount of produced TNF-α in the drug-free (blank) case.

[1] = Test on absorption after oral administration in mouse; format: in vivo; settings: male ICR mouse, 10 mg/kg oral, suspension in 0.5% HPMC, plasma at 0.25, 0.5, 1 and 4 hours, HPLC; FIG. 1
Protocol: Test on Absorption after Oral Administration in Mouse Each of the test compounds (Examples 7, 10, and 13) was suspended in 0.5% HPMC in a mortar. The suspension was orally administered to each male ICR mouse (6 weeks old) in an amount of 10 mg/kg. At each time of 0.25, 0.5, 1, and 4 hours after oral administration, a blood sample was collected and centrifuged, whereby a plasma sample was prepared. The level of the test compound in the plasma sample was determined through HPLC.

Compound | IC50 (TNF-α production) | melting point | absorption after oral administration (level of test compound in plasma) [1]
CN(C)Cc1cc(-c2ccc3c(c2)CCO3)nn(CC2CC2)c1=O [Example 3, 2-cyclopropylmethyl-6-(2,3-dihydro-1-benzofuran-5-yl)-4-dimethylaminomethyl-2H-pyridazin-3-one] | – | 109 to 110 °C | –
CN1CCN(Cc2cc(-c3ccc4c(c3)CCO4)nn(Cc3ccc(F)cc3)c2=O)CC1.Cl.Cl [Example 7, 2-(4-fluorobenzyl)-6-(2,3-dihydro-1-benzofuran-5-yl)-4-(4-methyl-1-piperazinyl)methyl-2H-pyridazin-3-one dihydrochloride] | – | 201 to 204 °C (dec.) | good absorbability
CN1CCN(Cc2cc(-c3ccc4c(c3)CCO4)nn(Cc3ccc(F)cc3)c2=O)CC1 [Example 6, 2-(4-fluorobenzyl)-6-(2,3-dihydro-1-benzofuran-5-yl)-4-(4-methyl-1-piperazinyl)methyl-2H-pyridazin-3-one] | 3.1 µM | 179 to 180 °C | –
CN1CCN(Cc2cc(-c3ccc4c(c3)CCO4)nn(Cc3ccc(Cl)cc3)c2=O)CC1 [Example 8, 2-(4-chlorobenzyl)-6-(2,3-dihydro-1-benzofuran-5-yl)-4-(4-methyl-1-piperazinyl)methyl-2H-pyridazin-3-one] | – | 149 to 150 °C | –
CN1CCN(Cc2cc(-c3ccc4c(c3)CCO4)nn(CC3CC3)c2=O)CC1 [Example 1, 2-cyclopropylmethyl-6-(2,3-dihydro-1-benzofuran-5-yl)-4-(4-methyl-1-piperazinyl)methyl-2H-pyridazin-3-one] | 8.9 µM | 128 to 130 °C | –

The next lines start with the values.

IC50 (TNF-α production) | melting point | absorption after oral administration (level of test compound in plasma) [1] | Compound
7.5 µM | 120.1 to 122.8 °C | – | NCc1cc(-c2ccc3c(c2)CCO3)nn(Cc2ccccc2Cl)c1=O [Example 18, 4-aminomethyl-2-(2-chlorobenzyl)-6-(2,3-dihydro-1-benzofuran-5-yl)-2H-pyridazin-3-one]
– | 128 to 130 °C | – | CN1CCN(Cc2cc(-c3ccc4occc4c3)nn(Cc3ccc(F)cc3)c2=O)CC1 [Example 11, 6-(1-benzofuran-5-yl)-2-(4-fluorobenzyl)-4-(4-methyl-1-piperazinyl)methyl-2H-pyridazin-3-one]
2.2 µM | – | – | CN1CCN(Cc2cc(-c3ccc4c(c3)CCO4)nn(CCCc3ccccc3Cl)c2=O)CC1 [Example 12, 2-[3-(2-chlorophenyl)propyl]-6-(2,3-dihydro-1-benzofuran-5-yl)-4-(4-methyl-1-piperazinyl)methyl-2H-pyridazin-3-one]
– | – | good absorbability | CN1CCN(Cc2cc(-c3ccc4c(c3)CCO4)nn(CC=Cc3ccc(Cl)cc3)c2=O)CC1.Cl.Cl [Example 10, 2-(4-chlorocinnamyl)-6-(2,3-dihydro-1-benzofuran-5-yl)-4-(4-methyl-1-piperazinyl)methyl-2H-pyridazin-3-one dihydrochloride]
7.5 µM | 141.4 to 142.1 °C | – | CN1CCN(Cc2cc(-c3ccc4c(c3)CCO4)nn(Cc3ccccc3Cl)c2=O)CC1 [Example 17, 2-(2-chlorobenzyl)-6-(2,3-dihydro-1-benzofuran-5-yl)-4-(4-methyl-1-piperazinyl)methyl-2H-pyridazin-3-one]
4.2 µM | 112 to 113 °C | – | CN1CCN(Cc2cc(-c3ccc4c(c3)CCO4)nn(CC=Cc3ccc(Cl)cc3)c2=O)CC1 [Example 9, 2-(4-chlorocinnamyl)-6-(2,3-dihydro-1-benzofuran-5-yl)-4-(4-methyl-1-piperazinyl)methyl-2H-pyridazin-3-one]
– | – | good absorbability | CN1CCN(Cc2cc(-c3ccc4c(c3)CCO4)nn(CCCc3ccccc3Cl)c2=O)CC1.Cl.Cl [Example 13, 2-[3-(2-chlorophenyl)propyl]-6-(2,3-dihydro-1-benzofuran-5-yl)-4-(4-methyl-1-piperazinyl)methyl-2H-pyridazin-3-one dihydrochloride]
